Test results from patent US20250195521A1 (Revolution Medicines, Inc., priority 2020, published 2025).
pEC50, pIC50: −log10 of the molar value. Read-outs that look alike come from different tables or passages of the source.

Legend:
NRAS G12C = NRAS G12C (Homo sapiens (Human), UniProt P01111+P62937, G12C); assay: Ras-Raf disruption/FRET/MOA assay (BRAF RBD, Cyclophilin A); format: biochemical; conditions: read-out: NRAS G12C FRET data IC50
Outline: (§1)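 Measured: compound-facilitated Cyclophilin A:Ras complex blocking RAF RBD binding. Conditions: 12.5 nM Ras-GMPPNP, 50 nM BRAF RBD, 25 μM CypA, 3 h plus 1.5 h detection. Output: IC50 from TR-FRET ratio.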

KRAS WT = KRAS WT (Homo sapiens (Human), UniProt P01116+P62937); assay: as above; format: biochemical; conditions: read-out: KRAS WT FRET data IC50
Outline: (§2)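 TR-FRET read after 1.5 h with 10 nM anti-His Eu-W1024 and 50 nM anti-GST APC, following 3 h at 25 °C of GMPPNP-loaded His6-Ras (12.5 nM), GST-BRAF RBD (50 nM) and Cyclophilin A (25 μM) with compound from 30 μM final, 10 points, 3-fold. IC50 reported; pH 7.3 HEPES, 100 mM NaCl.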

NRAS WT = NRAS WT (Homo sapiens (Human), UniProt P01111+P62937); assay: as above; format: biochemical
Outline: as §1

KRAS G12V = KRAS G12V (Homo sapiens (Human), UniProt P01116+P62937, G12V); assay: as above; format: biochemical; conditions: read-out: KRAS G12V FRET IC50
Outline: as §2

KRAS G13D = KRAS G13D (Homo sapiens (Human), UniProt P01116+P62937, G13D); assay: as above; format: biochemical; conditions: read-out: KRAS G13D FRET data IC50
Outline: as §2

KRAS G12C = KRAS G12C (Homo sapiens (Human), UniProt P01116+P62937, G12C); assay: as above; format: biochemical; conditions: read-out: KRAS G12C FRET IC50
Outline: as §2

KRAS G12S = KRAS G12S (Homo sapiens (Human), UniProt P01116+P62937, G12S); assay: as above; format: biochemical; conditions: read-out: KRAS G12S FRET IC50
Outline: as §2

KRAS G12D = KRAS G12D (Homo sapiens (Human), UniProt P01116+P62937, G12D); assay: as above; format: biochemical; conditions: read-out: KRAS G12D FRET IC50
Outline: as §2

KRAS G13C = KRAS G13C (Homo sapiens (Human), UniProt P01116+P62937, G13C); assay: as above; format: biochemical; conditions: read-out: KRAS G13C FRET IC50
Outline: as §2

NRAS Q61R = NRAS Q61R (Homo sapiens (Human), UniProt P01111+P62937, Q61R); assay: as above; format: biochemical
Outline: as §1

[1] = system: K-Ras G12C (NCI-H358 cells); assay: Potency assay: pERK in NCI-H358 cells; format: cell-based, human; conditions: Homo sapiens; NCI-H358 cells, 4 hours; read-out: pERK EC50 (H358 KRAS G12C)
Outline: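 Cells plated the day before were exposed for 4 h at 37° C, 5% CO2 to a 10-point, 3-fold DMSO dilution series (10 mM top stock), in duplicate. Phospho-ERK was read by AlphaLISA SureFire Ultra or by In-Cell Western with DRAQ5 DNA stain, and IC50 came from a 4-parameter sigmoidal fit.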

[2] = system: NCI-H358 cells (K-Ras G12C); assay: CellTiter-Glo cell viability, NCI-H358; format: cell-based, human; conditions: K-Ras G12C, 5-day treatment, read-out: H358 Cell Viability IC50
Outline: (§3)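 Viability read by luminescence on day 5 after direct compound addition to cells, following ~30 min room-temperature equilibration. Values expressed as percent of mean DMSO signal, curves fitted with a four-parameter logistic model.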

[3] = system: Capan-1 cells (K-Ras G12V); assay: CellTiter-Glo cell viability, Capan-1; format: cell-based, human; conditions: K-Ras G12V, 5-day treatment, read-out: Capan-1 Cell Viability IC50
Outline: as §3

KRAS Q61H = KRAS Q61H (Homo sapiens (Human), UniProt P01116+P62937, Q61H); assay: Ras-Raf disruption/FRET/MOA assay (BRAF RBD, Cyclophilin A); format: biochemical
Outline: as §2

[4] = target: K-Ras G12C(GMP-PNP) binding to BRAF RBD (Homo sapiens (Human), UniProt P01116+P62937, G12C); assay: Disruption of BRAF RBD interaction with K-Ras (FRET / MOA assay), K-Ras G12C; format: biochemical; conditions: read-out: KRAS G12C FRET IC50
Outline: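 Cpd 10-pt 3-fold dilution, top 30 μM final; Ras/CypA/BRAF RBD mix 3 h, 25° C. Add anti-His Eu-W1024 10 nM + anti-GST APC 50 nM final, 1.5 h. Readout TR-FRET ratio decrease vs DMSO → IC50.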

NCI-H358 (K-Ras G12C) = assay: CellTiter-Glo cell viability assay, NCI-H358; format: cell-based, human; conditions: Homo sapiens, NCI-H358, 120 h, 5-day treatment; read-out: H358 Cell Viability assay data (K-Ras G12C, IC50)
Outline: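 Viability read-out was luminescent (CellTiter-Glo) on day 5 of compound exposure in K-Ras G12C NCI-H358 cells. Values were expressed as percent of mean DMSO signal and fitted with a four-parameter logistic curve.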

Sequence of KRAS G12S (P01116 other isoform, or with tags, fused parts or gaps G12S): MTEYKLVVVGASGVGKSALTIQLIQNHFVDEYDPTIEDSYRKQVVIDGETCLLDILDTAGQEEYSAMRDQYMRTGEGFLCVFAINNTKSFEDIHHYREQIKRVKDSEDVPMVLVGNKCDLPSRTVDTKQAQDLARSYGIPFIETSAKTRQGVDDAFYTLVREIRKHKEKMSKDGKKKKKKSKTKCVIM
Sequence of KRAS G12S (P62937 whole entry): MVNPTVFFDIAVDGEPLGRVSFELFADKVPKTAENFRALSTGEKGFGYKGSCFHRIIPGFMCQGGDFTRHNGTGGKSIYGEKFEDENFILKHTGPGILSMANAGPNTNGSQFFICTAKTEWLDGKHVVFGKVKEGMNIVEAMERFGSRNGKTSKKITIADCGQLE
Sequence of NRAS G12C (P01111 whole entry G12C): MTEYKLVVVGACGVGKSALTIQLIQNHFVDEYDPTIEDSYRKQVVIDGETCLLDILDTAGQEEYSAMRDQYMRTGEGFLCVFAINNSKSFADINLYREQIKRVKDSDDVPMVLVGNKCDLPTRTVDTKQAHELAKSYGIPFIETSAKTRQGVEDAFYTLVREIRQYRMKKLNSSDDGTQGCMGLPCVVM
Sequence of NRAS G12C (P62937 whole entry): as the sequence (P62937 whole entry) above
Sequence of KRAS Q61H (P01116 other isoform, or with tags, fused parts or gaps Q61H): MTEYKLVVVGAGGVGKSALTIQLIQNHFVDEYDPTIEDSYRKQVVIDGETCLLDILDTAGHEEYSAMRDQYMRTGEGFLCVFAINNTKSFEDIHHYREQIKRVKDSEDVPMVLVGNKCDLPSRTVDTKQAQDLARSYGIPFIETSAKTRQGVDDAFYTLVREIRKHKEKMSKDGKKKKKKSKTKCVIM
Sequence of KRAS Q61H (P62937 whole entry): as the sequence (P62937 whole entry) above
Sequence of KRAS G13D (P01116 other isoform, or with tags, fused parts or gaps G13D): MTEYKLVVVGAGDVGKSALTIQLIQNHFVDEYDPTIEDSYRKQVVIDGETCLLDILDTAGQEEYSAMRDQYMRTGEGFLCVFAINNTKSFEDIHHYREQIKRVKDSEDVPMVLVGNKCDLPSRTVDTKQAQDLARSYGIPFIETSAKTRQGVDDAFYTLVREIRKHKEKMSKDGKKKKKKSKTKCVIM
Sequence of KRAS G13D (P62937 whole entry): as the sequence (P62937 whole entry) above
Sequence of KRAS G13C (P01116 other isoform, or with tags, fused parts or gaps G13C): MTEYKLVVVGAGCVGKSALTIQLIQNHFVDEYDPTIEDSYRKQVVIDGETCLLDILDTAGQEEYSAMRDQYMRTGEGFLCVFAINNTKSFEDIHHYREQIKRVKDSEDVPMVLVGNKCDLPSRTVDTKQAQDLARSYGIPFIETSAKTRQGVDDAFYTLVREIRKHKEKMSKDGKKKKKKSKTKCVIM
Sequence of KRAS G13C (P62937 whole entry): as the sequence (P62937 whole entry) above
Sequence of KRAS G12C (P01116-2 other isoform, or with tags, fused parts or gaps G12C): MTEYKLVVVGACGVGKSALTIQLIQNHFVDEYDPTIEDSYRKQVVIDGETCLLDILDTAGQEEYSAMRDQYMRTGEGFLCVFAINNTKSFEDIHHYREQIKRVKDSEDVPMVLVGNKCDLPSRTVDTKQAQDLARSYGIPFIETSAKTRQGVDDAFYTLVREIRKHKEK
Sequence of KRAS G12C (P62937 whole entry): as the sequence (P62937 whole entry) above
Sequence of NRAS WT (P01111 whole entry): as the sequence (P01111 whole entry G12C) above, with C12G counted along it
Sequence of NRAS WT (P62937 whole entry): as the sequence (P62937 whole entry) above
Sequence of NRAS Q61R (P01111 whole entry Q61R): as the sequence (P01111 whole entry G12C) above, with C12G, Q61R counted along it
Sequence of NRAS Q61R (P62937 whole entry): as the sequence (P62937 whole entry) above
Sequence of KRAS G12D (P01116 other isoform, or with tags, fused parts or gaps G12D): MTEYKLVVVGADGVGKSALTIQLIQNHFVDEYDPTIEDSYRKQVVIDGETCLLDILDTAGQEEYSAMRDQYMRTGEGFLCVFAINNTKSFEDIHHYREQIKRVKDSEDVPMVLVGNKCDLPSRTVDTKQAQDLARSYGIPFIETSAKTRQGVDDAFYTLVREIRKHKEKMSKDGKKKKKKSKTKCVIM
Sequence of KRAS G12D (P62937 whole entry): as the sequence (P62937 whole entry) above
Sequence of KRAS WT (P01116 other isoform, or with tags, fused parts or gaps): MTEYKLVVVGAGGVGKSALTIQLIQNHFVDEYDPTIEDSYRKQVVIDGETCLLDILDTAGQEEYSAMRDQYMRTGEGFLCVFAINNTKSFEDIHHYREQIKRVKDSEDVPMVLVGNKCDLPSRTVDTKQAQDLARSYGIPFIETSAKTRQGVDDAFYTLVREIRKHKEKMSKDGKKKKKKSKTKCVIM
Sequence of KRAS WT (P62937 whole entry): as the sequence (P62937 whole entry) above
Sequence of KRAS G12V (P01116 other isoform, or with tags, fused parts or gaps G12V): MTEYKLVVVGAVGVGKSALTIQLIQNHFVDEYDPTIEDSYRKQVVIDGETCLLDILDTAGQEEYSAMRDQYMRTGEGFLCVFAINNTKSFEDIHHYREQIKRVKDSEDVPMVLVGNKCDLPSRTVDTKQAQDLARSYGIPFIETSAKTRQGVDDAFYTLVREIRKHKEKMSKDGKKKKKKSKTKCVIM
Sequence of KRAS G12V (P62937 whole entry): as the sequence (P62937 whole entry) above
Sequence of K-Ras G12C(GMP-PNP) binding to BRAF RBD (P01116 other isoform, or with tags, fused parts or gaps G12C): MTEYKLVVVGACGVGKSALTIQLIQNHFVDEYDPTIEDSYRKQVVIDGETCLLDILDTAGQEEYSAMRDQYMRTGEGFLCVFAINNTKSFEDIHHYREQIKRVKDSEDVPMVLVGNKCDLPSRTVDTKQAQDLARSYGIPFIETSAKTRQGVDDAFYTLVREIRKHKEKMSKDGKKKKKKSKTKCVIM
Sequence of K-Ras G12C(GMP-PNP) binding to BRAF RBD (P62937 whole entry): as the sequence (P62937 whole entry) above

| SMILES | pIC50 (NRAS G12C) | pIC50 (KRAS WT) | pIC50 (NRAS WT) | pIC50 (KRAS G12V) | pIC50 (KRAS G13D) | pIC50 (KRAS G12C) | pIC50 (KRAS G12S) | pIC50 (KRAS G12D) | pIC50 (KRAS G13C) | pIC50 (NRAS Q61R) | pEC50 [1] | pIC50 ([2]; Homo sapiens, NCI-H358, 120 h) | pIC50 ([3]; Homo sapiens, CAPAN-1, 120 h) | pIC50 (KRAS Q61H) | pIC50 [4] | pIC50 (NCI-H358 (K-Ras G12C)) | pIC50 [2] | pIC50 [3] |
| --- | --- | --- | --- | --- | --- | --- | --- | --- | --- | --- | --- | --- | --- | --- | --- | --- | --- | --- |
| CCn1c(-c2cccnc2[C@H](C)OC)c2c3cc(ccc31)-c1csc(n1)C[C@H](NC(=O)[C@H](C(C)C)N(C)C(=O)N1CC3(CN(C)C3)C1)C(=O)N1CCC[C@H](N1)C(=O)OCC(C)(C)C2 [Compound A268] | 7.00 to 8.00 | 6.00 to 7.00 | 6.00 to 7.00 | 6.00 to 7.00 | 6.00 to 7.00 | 6.00 to 7.00 | 6.00 to 7.00 | 6.00 to 7.00 | 6.00 to 7.00 | 6.00 to 7.00 | > 5.30 | 6.00 to 7.00 | 6.00 to 7.00 | – | – | – | – | – |
| CCn1c(-c2cccnc2[C@H](C)OC)c2c3cc(ccc31)-c1csc(n1)C[C@H](NC(=O)[C@H](C(C)C)N(C)C(=O)N1CC(C(C)(C)O)C1)C(=O)N1CCC[C@H](N1)C(=O)OCC(C)(C)C2 [Compound A289] | 7.00 to 8.00 | 6.00 to 7.00 | 6.00 to 7.00 | 6.00 to 7.00 | 6.00 to 7.00 | 7.00 to 8.00 | 6.00 to 7.00 | 6.00 to 7.00 | 6.00 to 7.00 | 6.00 to 7.00 | – | – | 7.00 to 8.00 | 7.00 to 8.00 | – | – | – | – |
| CCn1c(-c2cccnc2[C@H](C)OC)c2c3cc(ccc31)-c1csc(n1)C[C@H](NC(=O)[C@H](C(C)C)N(C)C(=O)N1C[C@H]3COC[C@H]3C1)C(=O)N1CCC[C@H](N1)C(=O)OCC(C)(C)C2 [Compound A312] | 7.00 to 8.00 | 7.00 to 8.00 | 7.00 to 8.00 | 6.00 to 7.00 | 6.00 to 7.00 | 7.00 to 8.00 | 7.00 to 8.00 | 6.00 to 7.00 | 6.00 to 7.00 | – | – | 7.00 to 8.00 | 7.00 to 8.00 | 7.00 to 8.00 | < 5.00 | < 5.00 | – | – |
| CCn1c(-c2cccnc2[C@H](C)OC)c2c3cc(ccc31)-c1csc(n1)C[C@H](NC(=O)N1CCC1)C(=O)N1CCC[C@H](N1)C(=O)OCC(C)(C)C2 [Compound A369] | – | – | – | 6.00 to 7.00 | 6.00 to 7.00 | 6.00 to 7.00 | 6.00 to 7.00 | 5.00 to 6.00 | 6.00 to 7.00 | 6.00 to 7.00 | – | – | – | 6.00 to 7.00 | – | – | 6.00 to 7.00 | 6.00 to 7.00 |
| CCn1c(-c2cccnc2[C@H](C)OC)c2c3cc(ccc31)-c1csc(n1)C[C@H](NC(=O)[C@H](C(C)C)N(C)C(=O)N1CCC1)C(=O)N1CCC[C@H](N1)C(=O)OCC(C)(C)C2 [Compound A399] | 7.00 to 8.00 | 6.00 to 7.00 | 7.00 to 8.00 | 7.00 to 8.00 | 6.00 to 7.00 | 7.00 to 8.00 | 6.00 to 7.00 | 6.00 to 7.00 | 6.00 to 7.00 | – | – | – | 7.00 to 8.00 | 7.00 to 8.00 | – | – | – | – |
| CCn1c(-c2cccnc2[C@H](C)OC)c2c3cc(ccc31)-c1csc(n1)C[C@H](NC(=O)[C@H](C(C)C)N(C)C(=O)N1CC(C#N)(N(C)C)C1)C(=O)N1CCC[C@H](N1)C(=O)OCC(C)(C)C2 [Compound A452] | – | – | 6.00 to 7.00 | – | – | – | – | – | – | 6.00 to 7.00 | > 5.30 | – | – | 6.00 to 7.00 | – | – | – | – |
| CCn1c(-c2cccnc2[C@H](C)OC)c2c3cc(ccc31)-c1csc(n1)C[C@H](NC(=O)[C@H](C(C)C)N(C)C(=O)N(C)N(C)C)C(=O)N1CCC[C@H](N1)C(=O)OCC(C)(C)C2 [Compound A454] | 7.00 to 8.00 | 7.00 to 8.00 | 7.00 to 8.00 | 7.00 to 8.00 | 6.00 to 7.00 | 7.00 to 8.00 | 6.00 to 7.00 | 6.00 to 7.00 | 6.00 to 7.00 | – | > 5.30 | 7.00 to 8.00 | 7.00 to 8.00 | 7.00 to 8.00 | – | – | – | – |
| CCn1c(-c2cccnc2[C@H](C)OC)c2c3cc(ccc31)-c1csc(n1)C[C@H](NC(=O)[C@H](C(C)C)N(C)C(=O)N1CCOC3(COC3)C1)C(=O)N1CCC[C@H](N1)C(=O)OCC(C)(C)C2 [Compound A475] | 7.00 to 8.00 | 7.00 to 8.00 | 7.00 to 8.00 | 6.00 to 7.00 | 6.00 to 7.00 | 7.00 to 8.00 | 6.00 to 7.00 | 6.00 to 7.00 | 6.00 to 7.00 | – | > 5.30 | – | 7.00 to 8.00 | 7.00 to 8.00 | – | – | – | – |
| CCn1c(-c2cccnc2[C@H](C)OC)c2c3cc(ccc31)-c1csc(n1)C[C@H](NC(=O)[C@H](C(C)C)N(C)C(=O)N1CCN3C(=O)CN(C)C[C@@H]3C1)C(=O)N1CCC[C@H](N1)C(=O)OCC(C)(C)C2 [Compound A536] | 7.00 to 8.00 | 7.00 to 8.00 | 7.00 to 8.00 | 6.00 to 7.00 | 6.00 to 7.00 | 7.00 to 8.00 | 6.00 to 7.00 | 6.00 to 7.00 | 6.00 to 7.00 | – | > 5.30 | > 8.00 | 7.00 to 8.00 | 7.00 to 8.00 | – | – | – | – |
| CCn1c(-c2cccnc2[C@H](C)OC)c2c3cc(ccc31)-c1csc(n1)C[C@H](NC(=O)[C@H](C(C)C)N(C)C(=O)N1CCC13COC3)C(=O)N1CCC[C@H](N1)C(=O)OCC(C)(C)C2 [Compound A560] | 7.00 to 8.00 | 7.00 to 8.00 | 7.00 to 8.00 | 6.00 to 7.00 | 6.00 to 7.00 | 7.00 to 8.00 | 6.00 to 7.00 | 6.00 to 7.00 | 6.00 to 7.00 | – | > 5.30 | 7.00 to 8.00 | 6.00 to 7.00 | 7.00 to 8.00 | – | – | – | – |
